Counter-ions that a name gives are not always drawn.
The compounds below were run on rat pituitary cells (assay: growth hormone secretion in rat pituitary cell cultures (GH release, RIA)). Settings: 0.25 h; GH release from cultured rat anterior pituitary cells, 15 min incubation at 37° C., rat GH measured by double antibody RIA; read-out: ED50 (the source's name).
Assay type: cell-based
Protocol: The bioassay employed for the determination of growth hormone secretion in rat pituitary cell cultures has been previously described--Cheng, K.; Chan, W. W.-S; Barreto, A.; Convey, E. M.; Smith, R. G. Endocrinology 124: 2791-2798 (1989)--and is summarized here: The Wistar male rats (150-200 grams) were obtained from Charles River Laboratories (Wilmington, Mass). Rats were maintained at a constant temperature (25° C.) on a 14-hr light, 10-hr dark cycle. Rat chow and water were available ad libitum. The animals were sacrificed by decapitation and anterior lobes of the pituitary quickly removed. Rat pituitary cells were isolated from pituitaries by enzymatic digestion with 0.2% collagenase and 0.2% hyaluronidase in Hank's Balanced Salt Solution. For culture, the cells were suspended in culture medium and adjusted to 1.5×10^5 cells/ml, and 1.0 ml of this suspension was placed in each well of a 24-well tray (Costar, Cambridge, Mass.). Cells were maintained in a humidified 5% CO2 -95% air atmosphere at 37° C. for 3 to 4 days. The culture medium consisted of DMEM containing 0.37% NaHCO3, 10% horse serum, 2.5% fetal bovine serum, 1% non-essential amino acids, 1% glutamine, 1% nystatin, and 0.1% gentamycin. On the day of an experiment, cells were washed twice 11/2 hrs prior to and once more immediately before the start of the experiment with the above culture medium containing 25 mM HEPES, pH 7.4. GH release was initiated by adding 1 ml of fresh medium containing test agents to each well in quadruplicate. Incubation was carded out at 37° C. for 15 min. After incubation, medium was removed and centrifuged at 2,000×g for 15 min to remove any cellular material. The supernatant fluid was removed and assayed for GH content. Rat GH in culture medium was measured by a double antibody RIA procedure using materials obtained from Dr. A. F. Parlow (Harbor-UCLA medical Center, Torrance, Calif.) and expressed in terms of the standard rat GH RP-2. ED50 values for test compounds were computed by fitting a four-parameter logistic function to the dose-response curve. Least squares estimates of the four-parameter logistic function coefficients and their variances were derived using the iterative algorithm described by Bates and Watts.

Q: Which EC50 does the source give for CNC(=O)Nc1ccccc1-c1ccc(CNC(=O)[C@@H](Cc2c[nH]c3ccccc23)NC(=O)C(C)(C)N)cc1 [Example 6, (R)-α-[(2-Amino-2-methyl-1-oxopropyl)amino]-N-[[2'-[[(methylamino)carbonyl]amino][1,1'-biphenyl]-4-yl]methyl]-1H-indole-3-propanamide, trifluoroacetate] here?
A: > 500 nM

Q: For CC(C)(N)CC(=O)N[C@H](Cc1c[nH]c2ccccc12)C(=O)NCc1ccc(-c2ccccc2NC(=O)NCCO)cc1 [Example 17, (R)-α-[(3-Amino-3-methyl-1-oxobutyl)amino]-N-[[2'-[[(2-hydroxyethylamino)carbonyl]amino][1,1'-biphenyl]-4-yl]-methyl]-1H-indole-3-propanamide, trifluoroacetate], which EC50 is on record?
A: > 500 nM

Q: With CNC(=O)Nc1ccccc1-c1ccc(CNC(=O)[C@@H](COCc2ccccc2)NC(=O)C(C)(C)N)cc1 [Example 23, (R)-α-[(2-Amino-2-methyl-1-oxopropyl]amino]-N-[[2'-[[(methylamino)carbonyl]amino][1,1'-biphenyl]-4-yl]methyl]-3-[(phenylmethyl)oxy]propanamide, trifluoroacetate] as the compound, how does the EC50 read?
A: > 500 nM

Q: For CC(C)(N)CC(=O)N[C@H](Cc1c[nH]c2ccccc12)C(=O)NCc1ccc(-c2ccccc2-c2nnn[nH]2)cc1 [Example 3, (R)-α-[(3-Amino-3-methyl-1-oxobutyl)amino]-N-[[2'-(1H-tetrazol-5-yl)[1,1'-biphenyl]-4-yl]methyl]-1H-indole-3-propanamide, trifluoroacetate], which EC50 is on record?
A: < 500 nM

Q: Which EC50 does the source give for CC(C)(N)CC(=O)NCC(=O)NCc1ccc(-c2ccccc2-c2nnn[nH]2)cc1 [Example 5, 2-[(3-Amino-3-methyl-1-oxobutyl)amino]-N-[[2'-(1H-tetrazol-5-yl)[1,1'-biphenyl]-4-yl]methyl]acetamide, trifluoroacetate] here?
A: > 500 nM

Q: Which EC50 does the source give for CC[C@@H](NC(=O)CC(C)(C)N)C(=O)N(Cc1ccc(-c2ccccc2-c2nnn[nH]2)cc1)c1ccccc1 [Example 4, (R)-2-[(3-Amino-3-methyl-1-oxobutyl)amino]-N-phenyl-N-[[2'-(1H-tetrazol-5-yl)[1,1'-biphenyl]-4-yl]methyl]butanamide, trifluoroacetate] here?
A: > 500 nM

Q: For CC(C)(N)CC(=O)N[C@H](CCc1ccccc1)C(=O)NCc1ccc(-c2ccccc2-c2nnn[nH]2)cc1 [Example 1, (R)-α-[(3-Amino-3-methyl-1-oxobutyl)amino]-N-[[2'-(1H-tetrazol-5-yl)[1,1'-biphenyl]-4-yl]methyl]benzene-butanamide, trifluoroacetate], which EC50 is on record?
A: > 500 nM

Q: Which EC50 does the source give for CN(Cc1ccc(-c2ccccc2-c2nnn[nH]2)cc1)C(=O)[C@@H](Cc1c[nH]c2ccccc12)NC(=O)C(C)(C)N [Example 13, (R)-α-[(2-Amino-2-methyl-1-oxopropyl)amino]-N-methyl-N-[[2'-(1H-tetrazol-5-yl)[1,1'-biphenyl]-4-yl]methyl]-1H-indole-3-propanamide, trifluoroacetate] here?
A: > 500 nM

Q: For CC(C)(N)CC(=O)N[C@H](Cc1ccccc1)C(=O)NCc1ccc(-c2ccccc2-c2nnn[nH]2)cc1 [Example 2, (R)-α-[(3-Amino-3-methyl-1-oxobutyl)amino]-N-[[2'-(1H-tetrazol-5-yl)[1,1'-biphenyl]-4-yl]methyl]benzene-propanamide, trifluoroacetate], which EC50 is on record?
A: < 500 nM

Same assay, conditions: GH release from cultured rat anterior pituitary cells, 15 min incubation at 37° C., rat GH measured by double antibody RIA; read-out: ED50 (the source's name)

Q: CNC(=O)NCc1ccccc1-c1ccc(CN(C)C(=O)[C@@H](CCc2ccccc2)NC(=O)C(C)(C)N)cc1.O=C(O)C(F)(F)F [Example 9] was tested. Which EC50 did it give?
A: < 500 nM

Q: CNC(=O)Nc1ccccc1-c1ccc(CNC(=O)[C@@H](COCc2ccccc2)NC(=O)CC(C)(C)N)cc1.O=C(O)C(F)(F)F [Example 24] was tested. Which EC50 did it give?
A: > 500 nM

Q: With CN(Cc1ccc(-c2ccccc2-c2nnn[nH]2)cc1)C(=O)[C@@H](CCc1ccccc1)NC(=O)CC(C)(C)N.O=C(O)C(F)(F)F [Example 8a, (R)-α-[(3-Amino-3-methyl-1-oxybutyl)amino]-N-methyl-N-[[2'-(1H-tetrazol-5-yl)-[1,1'-biphenyl]-4-yl]methyl]benzenebutanamide, trifluoroacetate] as the compound, how does the EC50 read?
A: > 500 nM

Q: How did the EC50 turn out when CCN(Cc1ccc(-c2ccccc2-c2nnn[nH]2)cc1)C(=O)[C@@H](CCc1ccccc1)NC(=O)C(C)(C)N.O=C(O)C(F)(F)F [Example 18, (R)-α-[(2-Amino-2-methyl-1-oxypropyl)amino]-N-ethyl-N-[[2'-(1H-tetrazol-5-yl)-[1,1'-biphenyl]-4-yl]methyl]benzenebutanamide, trifluoroacetate] was run?
A: > 500 nM

Q: CNC(=O)NCc1ccccc1-c1ccc(CN(C)C(=O)[C@@H](Cc2c[nH]c3ccccc23)NC(=O)C(C)(C)N)cc1.O=C(O)C(F)(F)F [Example 14] was tested. Which EC50 did it give?
A: < 500 nM

Q: For CCCN(Cc1ccc(-c2ccccc2-c2nnn[nH]2)cc1)C(=O)[C@@H](CCc1ccccc1)NC(=O)C(C)(C)N.O=C(O)C(F)(F)F [Example 22, (R)-α-[(2-Amino-2-methyl-1-oxypropyl)amino]-N-[[2'-(1H-tetrazol-5-yl)-[1,1'-biphenyl]-4-yl]methyl]-N-(propyl)benzenebutanamide, trifluoroacetate], which EC50 is on record?
A: < 500 nM

Q: CC(C)(N)C(=O)N[C@H](COCc1ccccc1)C(=O)NCc1ccc(-c2ccccc2NC(=O)NCCO)cc1.O=C(O)C(F)(F)F [Example 25, (R)-α-[(2-Amino-2-methyl-1-oxopropyl)amino]-N-[[(2'-[(2-hydroxyethylamino)carbonyl]amino][1,1'-biphenyl]-4-yl]-methyl]-3-[(phenylmethyl)oxy]propanamide, trifluoracetate] was tested. Which EC50 did it give?
A: > 500 nM

Q: Which EC50 does the source give for COc1ccc(N(Cc2ccc(-c3ccccc3-c3nnn[nH]3)cc2)C(=O)[C@@H](CCc2ccccc2)NC(=O)CC(C)(C)N)cc1.O=C(O)C(F)(F)F [Example 30, (R)-α-[(3-Amino-3-methyl-1-oxybutyl)amino]-N-(4-methoxyphenyl)-N-[[2'-(1H-tetrazol-5-yl)-[1,1'-biphenyl]-4-yl]methyl]-benzenebutanamide, trifluoroacetate] here?
A: > 500 nM

Q: With CN(Cc1ccc(-c2ccccc2-c2nnn[nH]2)cc1)C(=O)[C@@H](CCc1ccccc1)NC(=O)C(C)(C)N.O=C(O)C(F)(F)F [Example 7a, (R)-α-[(2-Amino-2-methyl-1-oxypropyl)amino]-N-methyl-N-[[2'-(1H-tetrazol-5-yl)-[1,1'-biphenyl]-4-yl]methyl]benzenebutanamide trifluoroacetate] as the compound, how does the EC50 read?
A: < 500 nM

Q: CNC(=O)NCc1ccccc1-c1ccc(CN(C)C(=O)[C@@H](CCc2ccccc2)NC(=O)CC(C)(C)N)cc1.O=C(O)C(F)(F)F [Example 10] was tested. Which EC50 did it give?
A: < 500 nM

Q: CC(C)(N)C(=O)N[C@H](COCc1ccccc1)C(=O)NCc1ccc(-c2ccccc2-c2nnn[nH]2)cc1.O=C(O)C(F)(F)F [Example 27, (R)-α-[(2-Amino-2-methyl-1-oxypropyl)amino]-N-[[2'-(1H-tetrazol-5-yl)-[1,1'-biphenyl]-4-yl]methyl]-3-[(phenylmethyl)oxy]propanamide, trifluoracetate] was tested. Which EC50 did it give?
A: > 500 nM

Q: With “(R)-α-[(2-Amino-2-methyl)-1-oxopropyl]amino-N-methyl-N-[(2'-[[(methylamino)carbonyl]amino)methyl][1,1'-biphenyl]-4-yl]benzenebutanamide, trifluoroacetate [Example 35]” as the compound, how does the EC50 read?
A: < 500 nM

Q: How did the EC50 turn out when COc1ccc(N(Cc2ccc(-c3ccccc3-c3nnn[nH]3)cc2)C(=O)[C@@H](CCc2ccccc2)NC(=O)C(C)(C)N)cc1.O=C(O)C(F)(F)F [Example 29, (R)-α-[(2-Amino-2-methyl-1-oxypropyl)amino]-N-(4-methoxyphenyl)-N-[[2'-(1H-tetrazol-5-yl)-[1,1'-biphenyl]-4-yl]methyl]benzenebutanamide, trifluoroacetate] was run?
A: > 500 nM

Q: With CC(C)(N)CC(=O)N[C@H](COCc1ccccc1)C(=O)NCc1ccc(-c2ccccc2NC(=O)NCCO)cc1.O=C(O)C(F)(F)F [Example 26, (R)-α-[(3-Amino-3-methyl-1-oxobutyl)amino]-N-[[(2'-[(2-hydroxyethylamino)carbonyl]amino][1,1'-biphenyl]-4-yl]-methyl]-3-[(phenylmethyl)oxy]propanamide, trifluoracetate] as the compound, how does the EC50 read?
A: > 500 nM

Q: For CC(C)(N)C(=O)N[C@H](CCc1ccccc1)C(=O)N(Cc1ccc(-c2ccccc2-c2nnn[nH]2)cc1)c1ccc(O)cc1.O=C(O)C(F)(F)F [Example 31, (R)-α-[(2-Amino-2-methyl-1-oxypropyl)amino]-N-(4-hydroxyphenyl)-N-[[2'-(1H-tetrazol-5-yl)-[1,1'-biphenyl]-4-yl]methyl]benzene-butanamide, trifluoroacetate], which EC50 is on record?
A: > 500 nM

Q: CCN(Cc1ccc(-c2ccccc2CNC(=O)NC)cc1)C(=O)[C@@H](CCc1ccccc1)NC(=O)CC(C)(C)N.O=C(O)C(F)(F)F [Example 21] was tested. Which EC50 did it give?
A: < 500 nM
